Measured values from US9193689B2, “3-aryl-5-substituted-isoquinolin-1-one compounds and their therapeutic use” (INSTITUTE OF CANCER RESEARCH: ROYAL CANCER HOSPITAL (THE), priority 2012, dated 2015).
Like-named read-outs stand apart in the source and are kept apart here.

Experiments:
TNKS1 = TNKS1 (Homo sapiens, UniProt O95271); test: TNKS1/PARP Biochemical Assay (TNKS1)
[1] = system: Axin1 protein levels in DLD1 cells; test: Western Blotting for Direct and Downstream Targets of TNKS Inhibitors: Axin 1; assay type: cell-based;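 note: compound exposure 20 to 22 hours before lysis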
Experimental: DLD1 cells were assayed for the effect of putative Tankyrase1/2 inhibitors on TNKS1/2, Axin1/2 and β-catenin protein levels. […] Reduction of nuclear accumulation of β-catenin and ultimately, reduction of β-catenin/TCF/LEF transcriptional activation of Wnt target genes should correlate with loss of Wnt-luc reporter signal in the Wnt reporter assay.
DLD1 cells were seeded in a 6-well dish at 10000 cells/well in DMEM supplemented with 10% FBS. […] After washing in TBS-T, the membrane was probed with a species specific secondary antibody conjugated to HRP (1:5000, Pierce/ThermoFisher), washed again in TBS-T and reacted with chemiluminescent detection reagents (ECL, GE Healthcare, cat. no. RPN2109) followed by exposure to X-ray film (FujiFilm XR).

DLD1 cells = test: Long-Term Clonogenic Assay (DLD1 cells); assay type: cell-based
Experimental: Clonogenic Inhibition in DLD1 or HT55 Cells
In order to determine the efficacy of chronic dosing of putative TNKS inhibitors, long term clonogenic or ‘colony formation’ assays were carried out. This included the sparse seeding of cells in a 6-well dish followed by continuous dosing of cells over 12-14 days (depending on relative cell growth). Appropriate cell lines (DLD1 or HT55) were seeded at 500 cells/well in a 6-well dish in DMEM supplemented with FBS. […] Dosages were carried out in triplicate. Cell media containing compound or DMSO only was replenished every 48 hours. Termination of the assay included the fixation of cells with trichlororacetic acid (1 mL, 10% (v/v), Sigma Aldrich, cat. no. T6399) and incubation for 16 hours at 4° C. Fixed cells were then washed with water, allowed to dry and stained with sulforhodamine B solution (sulforhodamine B 0.05% (w/v), Sigma Aldrich cat. no. S1402, acetic acid 1% (v/v), Fisher Scientific, cat. no. A/0400/PB17)) for 12 hours at room temperature. The stain was then removed and the cells washed copiously with aqueous acetic acid (1% v/v) and allowed to dry.
The data was normalised to the DMSO control and was expressed as surviving fraction as a function of inhibitor dose.

[2] = system: TNKS stabilisation in HeLa, HT1080, HTC75 cells
Experimental: Cells were seeded, dosed and whole cell lysates were isolated and western blotted as described above. Primary antibodies included TNKS (1:1000, Santa Cruz Biotech, cat. no. SC8377).

[3] = system: Wnt activity in DLD1-Wnt-Luc cells; test: Wnt-Luciferase Reporter Assay
[4] = read-out: Wnt IC50, DLD1-Wnt-Luc cells

SMILES | IC50 (TNKS1) [nM] | stabilize Axin1 (Western blotting) [1] | Clonogenic SF50 (DLD1) (DLD1 cells) [µM] | stabilize TNKS (Western blotting) [2] | IC50 ([3]; read-out: Wnt IC50) [nM] | IC50 [3, 4] [nM]
CN1CCN(c2ccc(-c3cc4c(Cl)cccc4c(=O)[nH]3)cn2)CC1 [IQ-002-1] | < 50 | stabilize Axin1 | < 2 | stabilize TNKS | – | –
Cc1cccc2c(=O)[nH]c(-c3ccc(N4CCN(C)CC4)nc3)cc12 [IQ-003] | 21 | stabilize Axin1 | < 2 | stabilize TNKS | 12 | –
O=c1[nH]c(-c2ccc(N3CCNCC3)nc2)cc2c(Cl)cccc12 [IQ-027] | < 50 | stabilize Axin1 | – | stabilize TNKS | – | –
Cc1cccc2c(=O)[nH]c(-c3ccc(CN4CCCC4)cc3)cc12 [IQ-036] | < 50 | stabilize Axin1 | – | stabilize TNKS | – | –
Cc1cccc2c(=O)[nH]c(-c3ccc(CN4CCCCC4)cc3)cc12 [IQ-037] | < 50 | stabilize Axin1 | – | stabilize TNKS | – | –
Cc1cccc2c(=O)[nH]c(-c3ccc(CN4CCN(C)CC4)cc3)cc12 [IQ-038] | – | – | < 2 | stabilize TNKS | – | –
Cc1cccc2c(=O)[nH]c(-c3ccc(CN4CCC(N(C)C)CC4)cc3)cc12 [IQ-053] | – | – | – | stabilize TNKS | – | –
Cc1cccc2c(=O)[nH]c(-c3ccc(C(=O)N(C)C4CCN(C)CC4)cc3)cc12 [IQ-100, N-Methyl-4-(5-methyl-1-oxo-1,2-dihydro-isoquinolin-3-yl)-N-(1-methyl-piperidin-4-yl)-benzamide] | < 20 | stabilize Axin1 | – | stabilize TNKS | – | –
COCCN1CCN(C(=O)c2ccc(-c3cc4c(C)cccc4c(=O)[nH]3)cc2)CC1 [IQ-102] | < 20 | stabilize Axin1 | < 2 | stabilize TNKS | – | –
Cc1cccc2c(=O)[nH]c(-c3ccc(C(=O)N4CCC(N(C)C)CC4)cc3)cc12 [IQ-106] | < 50 | – | < 2 | – | – | –
Cc1cccc2c(=O)[nH]c(-c3ccc(S(=O)(=O)N4CCN(C)CC4)cc3)cc12 [IQ-121] | < 50 | – | < 2 | – | – | –
CNCCOc1ccc(-c2cc3c(C)cccc3c(=O)[nH]2)cc1 [IQ-127, 5-Methyl-3-[4-(2-methylamino-ethoxy)-phenyl]-2H-isoquinolin-1-one] | < 50 | stabilize Axin1 | < 2 | stabilize TNKS | – | –
CN(C)CCOc1ccc(-c2cc3c(F)cccc3c(=O)[nH]2)cc1 [IQ-129] | < 50 | – | < 2 | – | – | < 5000
Cc1cccc2c(=O)[nH]c(-c3ccc(OCCN(C)C)cc3)cc12 [IQ-130] | 16 | stabilize Axin1 | – | stabilize TNKS | 165 | –
Cc1cccc2c(=O)[nH]c(-c3ccc(OCCN4CCOCC4)cc3)cc12 [IQ-133] | < 500 | stabilize Axin1 | – | stabilize TNKS | – | –
CC(C)(C)OC(=O)N1CCN(Cc2ccc(-c3cc4c(Br)cccc4c(=O)[nH]3)cc2)CC1 [IQ-149, 4-[4-(5-Bromo-1-oxo-1,2-dihydro-isoquinolin-3-yl)-benzyl]-piperazine-1-carboxylic acid tert-butyl ester] | < 50 | – | < 2 | – | – | < 5000
Cc1cc(F)cc2c(=O)[nH]c(-c3ccc(C(=O)N4CCN(C)CC4)cc3)cc12.O=CO [IQ-190] | < 20 | – | < 2 | – | – | –
